Laboratory results published in US20130225629A1, “TARGETING PI3K/MTOR SIGNALLING AND NEUTROPHIL RECRUITMENT FOR TREATMENT OF ENTERITIS” (THE UNIVERSITY OF NORTH CAROLINA AT CHAPEL HILL, priority 2012, published 2013).

Experiments:
[1] = tested on: neutrophils (MPO); assay: Myeloperoxidase (MPO) immunohistochemistry of colon, neutrophil infiltration; assay type: in vivo, mice; conditions: in the presence of AS252424
Method: Deparaffinized colon sections were treated with 3% H2O2 for 10 minutes to quench endogenous peroxidases. Antigen retrieval was performed using microwave heating for 10 min in 10 mM citrate buffer pH 6.0. Sections were blocked in 5% goat serum TBS-T for 1 hour. The slides were incubated overnight at 4° C. with an anti-MPO antibody (1:400) (Thermo Scientific, Hampton, N.H., United States of America). Secondary biotinylated antibody was diluted at 1:1000 with the VECTASTAIN® ABC Elite Kit (Vector Laboratories, Inc., Burlingame, Calif., United States of America). Visualization was performed using DAB chromogen (Dako, Inc., Carpinteria, Calif., United States of America). Finally, sections were counterstained with hematoxylin for 5 seconds. Sections were imaged at the OLYMPUS® microscope using DP 71 camera and DP Controller 3.1.1.276 (Olympus, Center Valley, Pa., United States of America).
Neutrophils in intestinal tissue were detected using anti-myeloperoxidase (MPO) IHC as described previously (Sun et al., 2012). Briefly, intestinal tissue sections were deparaffinized, blocked and incubated with an anti-MPO antibody (1:400; Thermo Scientific, Hampton, N.H., United States of America) overnight. […]

[2] = tested on: C. jejuni; assay: FISH for C. jejuni in colon; assay type: in vivo; conditions: AS252424-treated mice
Method: Cy3-tagged 5′[…]3′ (SEQ ID NO: 1; Poppert et al., 2008) was used to probe the presence of C. jejuni. Deparaffinized, formalin-fixed 5 μm thick sections were incubated for 15 minutes in lysozyme (300,000 Units/ml lysozyme; Sigma-Aldrich, St. Louis, Mo., United States of America) buffer (25 mM Tris pH 7.5, 10 mM EDTA, 585 mM sucrose, and 0.3 mg/ml sodium taurocholate) at room temperature and hybridized overnight at 46° C. in hybridization chambers with the oligonucleotide probe (final concentration of 5 ng/μl in a solution of 30 percent formamide, 0.9 M sodium chloride, 20 mM Tris pH 7.5, and 0.01% sodium dodecyl sulfate). Tissue sections were washed for 20 minutes at 48° C. in washing buffer (0.9 M sodium chloride, 20 mM Tris pH 7.5) and once in distilled water for 10 seconds, dried at 46° C., mounted with DAPI mount media, and imaged using a Zeiss (Carl Zeiss, Thornwood, N.Y., United States of America) LSM710 Spectral Confocal Laser Scanning Microscope system with ZEN 2008 software. Acquired images were analyzed using BioimageXD. (Kankaanpaa et al., 2006). […]
Cy3-tagged 5′[…]3′ (SEQ ID NO: 1) was used to probe the presence of C. jejuni in the intestinal tissue sections as previously described (Sun et al., 2012). […] Acquired images were analyzed using BioimageXD (Kankaanpaa et al., 2006).

O=C1NC(=O)/C(=C/c2ccc(-c3ccc(F)cc3O)o2)S1 [AS252424]
C. jejuni-induced neutrophil infiltration into colonic tissues (MPO staining) [1]: strongly reduced
C. jejuni in colon (FISH, confocal) [2]: barely detectable
